Measurements: patent EP1714676A2, “Use of N-substituted-1,5-dideoxy-1,5-imino-D-glucitol compounds for treating hepatitis virus infections” (G.D. Searle LLC., priority 1999, dated 1999)

Key:
[1] = system: HepG 2.2.15 (2.2.15) cells; assay: IC-90 values taken as basis for the combostat serial dilutions; type: cell-based; conditions: Hepatitis B virus, HepG2.2.15; T. Block and G. Jacob, unpublished observation
Experimental: The anti-hepatitis B virus effect of […] (3TC) alone and in combination with N-nonyl-DNJ was determined according to Korba ((1996) Antiviral Research 29(1):49-51), using the "combostat" strategy (Comstat Program, Combostat Corp., Duluth, MN). The combostat method involves serially diluting the IC-90 of each compound. The IC-90 of N-nonyl-DNJ has been determined to be between 4 and 10 µg/ml (T. Block and G. Jacob, unpublished observation). The accepted IC-90 for 3TC in HepG 2.2.15 (2.2.15) cells is 300nM to 500nM (Doong et al. (1991) Proc. Natl. Acad. Sci. USA 88:8495-8499).

[2] = system: woodchuck hepatitis virus (WHV); assay: Woodchuck model: immune precipitated HBV DNA (IPDNA), immune precipitation followed by quantitative PCR; type: in vivo
Experimental: (§1) Therefore, five groups of four animals each (all groups had both sexes, all but the control had two of each sex) were assigned to 0, 12.5, 25, 50, and 100 mg/kg/day with BID oral dosing. These were lab-reared wild animals. All animals were infected with woodchuck hepatitis virus (WHV) as neonates, and had been tested positive on serological tests for WHV surface antigen. Blood samples were drawn one week prior to dosing (-1 week), immediately before dosing (0 weeks), weekly during dosing (1, 2, 3, and 4 weeks), and after the end of dosing (5, 6, 8, and 10 weeks).
(§2) There are two measures of drug efficacy: reduction in total HBV DNA (measured by quantitative PCR), and reduction in HBV DNA from capsids with intact surface glycoproteins, which is the active form of the virus (measured by an ELISA-like immune precipitation assay followed by quantitative PCR).
Substantial variation existed in the IPDNA assay, both between assay runs and within assay runs (data not shown). Even so, it was possible to observe and model a slope over weeks 0-4 which is generally increasing for low dose animals and decreasing for high dose animals.
Before models are fitted to the data, a log transform was applied because: 1) the variation in IPDNA increases with increasing IPDNA values; the log transformation gives values with a nearly constant variation, and 2) it is expected that drug effects will appear as a constant multiplier of the IPDNA level. Because there are zero values of IPDNA, a small value (about 1/2 of the smallest non-zero value) was added to all values before the log transform.
Two approaches were used to model the changes in slope to week with dose of N-nonyl-DNJ: a linear modeling approach and a nonlinear model. Both approaches assume that the (linear) rate of change of the Log(IPDNA) measure over the dosing period is the "right" measure to reflect the effect of the drug on the virus. Both approaches are fit in stages, and the first stage is common to both approaches. First, a simple straight line regression model is fit using weeks 0-4 to predict log(IPDNA + 10) separately for each animal by run combination. In the second stage, the response variable is the slope fitted in the first stage.
For the linear approach, a model is fit with slope to week as the response where run is considered a block, dose has a significant effect (almost all of this effect is due to a slope to dose), and the relevant error for testing the effect of dose is the variation among animals treated alike (after the adjustment for the runs as blocks). This is similar to using the calibration data within each run to first adjust each run's data to a common virus DNA concentration; the difference is that here the data from the woodchucks are used for the run adjustment rather than only the calibration data.
For the nonlinear approach, a four parameter logistic model is fit with the slope to week as the response and the dose as the predictor. Again, run is considered a block, but because no run has all weeks, it is not possible to fully reflect the blocking in the nonlinear approach. […] The average maximum slope observed was 2.71 additional Log(IPDNA µg/mL)/week, or an increase of about […], the average minimum slope observed with N-nonyl-DNJ is 0.31 fewer Log (IPDNA µg/mL)/week), or about a decrease of about […]. The slopes, the fitted model, the parameter estimates from the model, and the approximate standard errors for these parameters are all shown in Figure 3. […] Whether in woodchucks or humans, the effective dose of both the N-alkyl-DNJ and nucleoside or nucleotide antiviral agent administered in combination therewith can be administered in two equal daily subdoses (i.e., B.I.D.).

[3] = system: woodchuck hepatitis virus (WHV); assay: Woodchuck model: total HBV DNA by quantitative PCR; type: in vivo; conditions: 0, 12.5, 25, 50, 100 mg/kg/day BID oral, 4 weeks
Experimental: as §1, §2
The total HBV DNA levels were essentially constant over time within each animal (data not shown). There was a faint hint of a dose-response relationship with decreasing levels of virus with increasing levels of drug, except that three animals at the highest dose had very high virus levels. It is not possible to conclude that there is any relationship between dose of N-nonyl-DNJ and total HBV DNA. […]

Hepatitis B Virus = assay: HBV secretion by chronically HBV secreting HepG2.2.15 cells (preS1 immunoprecipitation of secreted virions, PCR of viral DNA); type: cell-based; conditions: 3 days, control = 100%
Experimental: The anti-hepatitis B virus activity and effect on cell viability of a number of different N-substituted-1,5-dideoxy-1,5-imino-D-glucitol compounds were assessed using an in vitro assay employing chronically hepatitis B virus secreting HepG2.2.15 cells. The method employed was essentially that described in Block et al. (1994) Proc. Natl. Acad. Sci. USA 91:2235-2239.

HepG2.2.15 cells = type: cell-based
[4] = concentration [200] (unit not given)
[5] = concentration [1000] (unit not given)

| Compound | IC90 [1] [µg/mL] | EC50 ([2]; four parameter logistic model, slope of Log(IPDNA + 10) to week vs dose) [mg/kg/BID dose] | average maximum slope observed ([2]; weeks 0-4 of dosing) | average minimum slope observed ([2]; weeks 0-4 of dosing) | decrease of IPDNA at average minimum slope ([2]; weeks 0-4 of dosing) | increase of IPDNA at average maximum slope ([2]; weeks 0-4 of dosing) | approximate effective monotherapy dose ([2]; woodchucks, oral) | effect on total HBV DNA measurements [3] | Relative amount of HBV secreted, as a % of control (Hepatitis B Virus; [4]) | Relative amount of HBV secreted, as a % of control (Hepatitis B Virus; [5]) | appearance of cells by gross microscopic examination (HepG2.2.15 cells) |
| --- | --- | --- | --- | --- | --- | --- | --- | --- | --- | --- | --- |
| CCCCCCCCCN1C[C@H](O)[C@@H](O)[C@H](O)[C@H]1CO [Compound 1, N-(n-nonyl)-1,5-dideoxy-1,5-imino-D-glucitol] | 4 to 10 | 7.88 | 2.71 additional Log(IPDNA µg/mL)/week | 0.31 fewer Log (IPDNA µg/mL)/week | about 25 %/week | about 150 %/week | about 16 mg/kg/day | no effect |  |  |  |
| CCC(CC)CN1C[C@H](O)[C@@H](O)[C@H](O)[C@H]1CO [Compound 3, N-(2-ethylbutyl)-1,5-dideoxy-1,5-imino-D-glucitol] |  |  |  |  |  |  |  |  | 5.0 +/-30 (n = 3) % | 5.0 +/-20(n = 3) % | unremarkable (healthy) |
| CCCCN1C[C@H](O)[C@@H](O)[C@H](O)[C@H]1CO [NBDNJ, N-(n-butyl-)-1,5-dideoxy-1,5-imino-D-glucitol, reference compound] |  |  |  |  |  |  |  |  | 37.0 +/-13(n = 15) % | 3.2 +/-5(n = 15) % |  |
